Reference: US7880007B2, “Bicyclic substituted phenyl piperidine modulators of muscarinic receptors” (Vertex Pharmaceuticals Incorporated, priority 2004, dated 2011)

Columns and labels:
Type in all cases: cell-based
M3 muscarinic receptor = biological target: T1, M3 muscarinic receptor (Homo sapiens, UniProt P20309); assay: Functional mobilization of intracellular calcium (FLIPR), M3-CHO cells; conditions: for Emax: 100% efficacy = maximum response obtained with the Carbachol control; for M3 Activity: M3-CHO cells, calcium mobilization (FLIPR)
T1 construct: expressed in transfected cells; host or cells: CHO (M3-CHO)
In short: (§1)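 FLIPR fluorescence (ex 488, em 540 nm) recorded 60 sec after compound addition to dye-loaded CHO cells. Agonist mode: compound alone. Antagonist mode: 15 min compound pre-incubation, then carbachol at EC80, or co-application. Efficacy expressed as % of maximal carbachol response.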

M2 muscarinic receptor = biological target: T2, M2 muscarinic receptor (Homo sapiens, UniProt P08172); assay: Functional mobilization of intracellular calcium (FLIPR), M2-CHO cells; conditions: for Emax: 100% efficacy = maximum response obtained with the Carbachol control; for M2 Activity: M2-CHO cells, calcium mobilization (FLIPR)
T2 construct: expressed in transfected cells; host or cells: CHO (M2-CHO)
T2 sequence (P08172 1-466): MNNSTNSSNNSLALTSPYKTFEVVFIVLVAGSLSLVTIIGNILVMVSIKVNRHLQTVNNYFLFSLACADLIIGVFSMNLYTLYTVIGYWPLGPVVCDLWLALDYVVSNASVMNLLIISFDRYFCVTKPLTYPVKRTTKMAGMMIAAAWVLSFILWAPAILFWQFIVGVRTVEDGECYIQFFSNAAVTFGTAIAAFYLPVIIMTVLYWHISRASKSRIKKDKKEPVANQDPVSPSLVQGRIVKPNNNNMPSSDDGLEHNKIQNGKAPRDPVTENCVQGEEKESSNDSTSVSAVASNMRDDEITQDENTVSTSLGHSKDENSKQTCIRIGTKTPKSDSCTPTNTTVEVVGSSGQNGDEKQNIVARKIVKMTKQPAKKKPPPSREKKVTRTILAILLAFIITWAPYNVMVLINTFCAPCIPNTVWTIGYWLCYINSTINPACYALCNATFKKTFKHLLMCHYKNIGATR
In short: as §1

M4 muscarinic receptor = biological target: T3, M4 muscarinic receptor (Homo sapiens, UniProt P08173); assay: Functional mobilization of intracellular calcium (FLIPR), M4-CHO cells; conditions: for Emax: 100% efficacy = maximum response obtained with the Carbachol control; for M4 Activity: M4-CHO cells, calcium mobilization (FLIPR)
T3 construct: expressed in transfected cells; host or cells: CHO (M4-CHO)
T3 sequence (P08173 1-479): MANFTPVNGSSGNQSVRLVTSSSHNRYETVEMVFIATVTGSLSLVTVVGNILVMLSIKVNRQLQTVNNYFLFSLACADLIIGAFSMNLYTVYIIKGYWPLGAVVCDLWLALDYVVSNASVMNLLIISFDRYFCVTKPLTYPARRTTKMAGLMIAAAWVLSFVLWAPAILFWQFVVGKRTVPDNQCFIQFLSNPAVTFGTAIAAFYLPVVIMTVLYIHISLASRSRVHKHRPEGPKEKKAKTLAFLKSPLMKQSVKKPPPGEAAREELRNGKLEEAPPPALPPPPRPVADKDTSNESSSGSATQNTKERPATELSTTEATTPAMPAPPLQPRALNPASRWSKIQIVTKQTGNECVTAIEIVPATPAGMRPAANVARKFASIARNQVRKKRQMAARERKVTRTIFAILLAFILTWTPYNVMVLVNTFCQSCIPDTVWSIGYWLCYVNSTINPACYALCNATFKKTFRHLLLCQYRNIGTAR
In short: as §1

M1 muscarinic receptor = biological target: T4, M1 muscarinic receptor (Homo sapiens, UniProt P11229); assay: Functional mobilization of intracellular calcium (FLIPR), M1-CHO cells; conditions: for Emax: 100% efficacy = maximum response obtained with the Carbachol control; for M1 Activity: M1-CHO cells, calcium mobilization (FLIPR)
T4 construct: expressed in transfected cells; host or cells: CHO (M1-CHO)
T4 sequence (P11229 1-460): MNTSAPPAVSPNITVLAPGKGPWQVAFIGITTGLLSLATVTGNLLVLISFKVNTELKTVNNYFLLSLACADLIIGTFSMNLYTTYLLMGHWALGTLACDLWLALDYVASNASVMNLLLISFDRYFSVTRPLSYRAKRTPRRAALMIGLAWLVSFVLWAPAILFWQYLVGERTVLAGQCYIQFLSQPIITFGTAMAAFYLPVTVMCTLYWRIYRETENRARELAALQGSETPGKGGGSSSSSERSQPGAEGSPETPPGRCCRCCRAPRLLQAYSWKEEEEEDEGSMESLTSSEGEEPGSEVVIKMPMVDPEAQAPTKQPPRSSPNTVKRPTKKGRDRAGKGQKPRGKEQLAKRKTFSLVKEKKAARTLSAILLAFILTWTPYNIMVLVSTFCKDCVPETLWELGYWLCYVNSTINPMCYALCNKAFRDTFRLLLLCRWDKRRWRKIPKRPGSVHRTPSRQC
In short: as §1

T1 sequence (P20309 whole entry): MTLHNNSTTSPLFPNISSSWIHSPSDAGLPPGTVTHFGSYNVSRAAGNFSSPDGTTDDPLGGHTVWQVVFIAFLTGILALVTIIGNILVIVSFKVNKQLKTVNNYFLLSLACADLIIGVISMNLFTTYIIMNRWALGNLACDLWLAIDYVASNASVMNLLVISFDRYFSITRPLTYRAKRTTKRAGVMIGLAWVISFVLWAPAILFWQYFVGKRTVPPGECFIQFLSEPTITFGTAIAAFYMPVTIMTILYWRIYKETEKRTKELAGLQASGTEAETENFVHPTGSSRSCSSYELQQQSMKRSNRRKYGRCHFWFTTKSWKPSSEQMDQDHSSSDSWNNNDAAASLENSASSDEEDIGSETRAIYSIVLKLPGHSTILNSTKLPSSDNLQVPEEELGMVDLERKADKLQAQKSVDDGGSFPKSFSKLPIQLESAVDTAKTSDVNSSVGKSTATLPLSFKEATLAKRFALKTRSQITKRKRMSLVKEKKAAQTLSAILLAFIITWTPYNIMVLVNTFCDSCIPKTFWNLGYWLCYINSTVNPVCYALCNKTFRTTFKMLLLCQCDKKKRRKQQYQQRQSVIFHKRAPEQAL

SMILES: COC(=O)CC1CCCC(N2CCC(c3ccccc3OC)CC2)C1 (centres unmarked) [Compound 238]
- Emax (M3 muscarinic receptor): < 25%
- M3 Activity (M3 muscarinic receptor): + (activity was measured to be greater than 5.0 μM)
- Emax (M2 muscarinic receptor): < 25%
- M2 Activity (M2 muscarinic receptor): + (activity was measured to be greater than 5.0 μM)
- Emax (M4 muscarinic receptor): 25 to 100%
- M4 Activity (M4 muscarinic receptor): +++ (activity was measured to be less than 1.0 μM)
- Emax (M1 muscarinic receptor): 25 to 100%
- M1 Activity (M1 muscarinic receptor): + (activity was measured to be greater than 5.0 μM)

SMILES: COc1ccc(F)cc1C1(F)CCN(CC2CCOCC2)CC1 [Compound 239]
- Emax (M3 muscarinic receptor): < 25%
- M3 Activity (M3 muscarinic receptor): + (activity was measured to be greater than 5.0 μM)
- Emax (M2 muscarinic receptor): < 25%
- M2 Activity (M2 muscarinic receptor): + (activity was measured to be greater than 5.0 μM)
- Emax (M4 muscarinic receptor): 25 to 100%
- M4 Activity (M4 muscarinic receptor): ++ (activity was measured to be from 1.0 μM to 5.0 μM)
- Emax (M1 muscarinic receptor): 25 to 100%
- M1 Activity (M1 muscarinic receptor): + (activity was measured to be greater than 5.0 μM)

SMILES: COc1ccc(-c2ccccc2C2CCN([C@H]3C[C@H]4CC[C@H]3C4)CC2)cc1 [Compound 241]
- Emax (M3 muscarinic receptor): < 25%
- M3 Activity (M3 muscarinic receptor): + (activity was measured to be greater than 5.0 μM)
- Emax (M2 muscarinic receptor): < 25%
- M2 Activity (M2 muscarinic receptor): + (activity was measured to be greater than 5.0 μM)
- Emax (M4 muscarinic receptor): 25 to 100%
- M4 Activity (M4 muscarinic receptor): ++ (activity was measured to be from 1.0 μM to 5.0 μM)
- Emax (M1 muscarinic receptor): 25 to 100%
- M1 Activity (M1 muscarinic receptor): + (activity was measured to be greater than 5.0 μM)

SMILES: COc1ccc(F)cc1C1(F)CCN(C2CCC3CCC2C3)CC1 (centres unmarked) [Compound 242]
- Emax (M3 muscarinic receptor): < 25%
- M3 Activity (M3 muscarinic receptor): + (activity was measured to be greater than 5.0 μM)
- Emax (M2 muscarinic receptor): 25 to 100%
- M2 Activity (M2 muscarinic receptor): + (activity was measured to be greater than 5.0 μM)
- Emax (M4 muscarinic receptor): 25 to 100%
- M4 Activity (M4 muscarinic receptor): +++ (activity was measured to be less than 1.0 μM)
- Emax (M1 muscarinic receptor): 25 to 100%
- M1 Activity (M1 muscarinic receptor): ++ (activity was measured to be from 1.0 μM to 5.0 μM)

SMILES: CCOC(=O)N1CCC(CN2CCC(c3cc(-c4ccc(C(=O)NC)cc4)ccc3OC)CC2)CC1 [Compound 243]
- Emax (M3 muscarinic receptor): < 25%
- M3 Activity (M3 muscarinic receptor): + (activity was measured to be greater than 5.0 μM)
- Emax (M2 muscarinic receptor): < 25%
- M2 Activity (M2 muscarinic receptor): + (activity was measured to be greater than 5.0 μM)
- Emax (M4 muscarinic receptor): 25 to 100%
- M4 Activity (M4 muscarinic receptor): +++ (activity was measured to be less than 1.0 μM)
- Emax (M1 muscarinic receptor): 25 to 100%
- M1 Activity (M1 muscarinic receptor): +++ (activity was measured to be less than 1.0 μM)

SMILES: COc1ccc(C)cc1C1CCN(C2C[C@H]3CC[C@H](C2)C3)CC1 (some centres unmarked) [Compound 246]
- Emax (M3 muscarinic receptor): < 25%
- M3 Activity (M3 muscarinic receptor): + (activity was measured to be greater than 5.0 μM)
- Emax (M2 muscarinic receptor): 25 to 100%
- M2 Activity (M2 muscarinic receptor): + (activity was measured to be greater than 5.0 μM)
- Emax (M4 muscarinic receptor): 25 to 100%
- M4 Activity (M4 muscarinic receptor): +++ (activity was measured to be less than 1.0 μM)
- Emax (M1 muscarinic receptor): 25 to 100%
- M1 Activity (M1 muscarinic receptor): ++ (activity was measured to be from 1.0 μM to 5.0 μM)

SMILES: COc1ccc(F)cc1C1(OC)CCN(C2CC3CCC(C3)C2)CC1 (centres unmarked) [Compound 247]
- Emax (M3 muscarinic receptor): < 25%
- M3 Activity (M3 muscarinic receptor): + (activity was measured to be greater than 5.0 μM)
- Emax (M2 muscarinic receptor): < 25%
- M2 Activity (M2 muscarinic receptor): + (activity was measured to be greater than 5.0 μM)
- Emax (M4 muscarinic receptor): 25 to 100%
- M4 Activity (M4 muscarinic receptor): +++ (activity was measured to be less than 1.0 μM)
- Emax (M1 muscarinic receptor): < 25%
- M1 Activity (M1 muscarinic receptor): + (activity was measured to be greater than 5.0 μM)

SMILES: COc1ccc(Cl)cc1C1CCN(C2CC[S+]([O-])CC2)CC1 (centres unmarked) [Compound 248]
- Emax (M3 muscarinic receptor): < 25%
- M3 Activity (M3 muscarinic receptor): + (activity was measured to be greater than 5.0 μM)
- Emax (M2 muscarinic receptor): < 25%
- M2 Activity (M2 muscarinic receptor): + (activity was measured to be greater than 5.0 μM)
- Emax (M4 muscarinic receptor): 25 to 100%
- M4 Activity (M4 muscarinic receptor): + (activity was measured to be greater than 5.0 μM)
- Emax (M1 muscarinic receptor): < 25%
- M1 Activity (M1 muscarinic receptor): + (activity was measured to be greater than 5.0 μM)

SMILES: COc1ccc(Cl)cc1C1CCN(C2CCOCC2)CC1 [Compound 249]
- Emax (M3 muscarinic receptor): < 25%
- M3 Activity (M3 muscarinic receptor): + (activity was measured to be greater than 5.0 μM)
- Emax (M2 muscarinic receptor): 25 to 100%
- M2 Activity (M2 muscarinic receptor): + (activity was measured to be greater than 5.0 μM)
- Emax (M4 muscarinic receptor): 25 to 100%
- M4 Activity (M4 muscarinic receptor): +++ (activity was measured to be less than 1.0 μM)
- Emax (M1 muscarinic receptor): 25 to 100%
- M1 Activity (M1 muscarinic receptor): + (activity was measured to be greater than 5.0 μM)

SMILES: COc1ccc(C#N)cc1C1CCN([C@H]2C[C@H]3CC[C@H]2C3)CC1 [Compound 250]
- Emax (M3 muscarinic receptor): < 25%
- M3 Activity (M3 muscarinic receptor): + (activity was measured to be greater than 5.0 μM)
- Emax (M2 muscarinic receptor): < 25%
- M2 Activity (M2 muscarinic receptor): + (activity was measured to be greater than 5.0 μM)
- Emax (M4 muscarinic receptor): 25 to 100%
- M4 Activity (M4 muscarinic receptor): +++ (activity was measured to be less than 1.0 μM)
- Emax (M1 muscarinic receptor): 25 to 100%
- M1 Activity (M1 muscarinic receptor): ++ (activity was measured to be from 1.0 μM to 5.0 μM)

SMILES: COC(=O)c1ccc(-c2ccccc2C2CCN([C@H]3C[C@H]4CC[C@H]3C4)CC2)cc1 [Compound 251]
- Emax (M3 muscarinic receptor): < 25%
- M3 Activity (M3 muscarinic receptor): + (activity was measured to be greater than 5.0 μM)
- Emax (M2 muscarinic receptor): 25 to 100%
- M2 Activity (M2 muscarinic receptor): + (activity was measured to be greater than 5.0 μM)
- Emax (M4 muscarinic receptor): 25 to 100%
- M4 Activity (M4 muscarinic receptor): +++ (activity was measured to be less than 1.0 μM)
- Emax (M1 muscarinic receptor): 25 to 100%
- M1 Activity (M1 muscarinic receptor): + (activity was measured to be greater than 5.0 μM)

SMILES: Cc1ccccc1C1(O)CCN(C2CC3CCC2C3)CC1 (centres unmarked) [Compound 252]
- M3 Activity (M3 muscarinic receptor): + (activity was measured to be greater than 5.0 μM)
- Emax (M2 muscarinic receptor): < 25%
- M2 Activity (M2 muscarinic receptor): + (activity was measured to be greater than 5.0 μM)
- Emax (M4 muscarinic receptor): < 25%
- M4 Activity (M4 muscarinic receptor): + (activity was measured to be greater than 5.0 μM)
- Emax (M1 muscarinic receptor): < 25%
- M1 Activity (M1 muscarinic receptor): + (activity was measured to be greater than 5.0 μM)
